What was measured:
[1] = Effect of temperature (and pH) on the stability of the solution (purity); assay type: physicochemical; settings: 7% solution in water
[2] = Effect of concentration on the stability of the solution (purity over time)
[3] = 0.01 wt %, at 5° C. in 15% acetone
[4] = 0.1 wt %, at 5° C. in 15% acetone
[5] = 1 wt %, at 5° C. in 15% acetone
[6] = 3 wt %, at 5° C. in 15% acetone
[7] = 5 wt %, at 5° C. in 15% acetone
[8] = 7 wt %, at 5° C. in 15% acetone
[9] = 8 wt %, at 5° C. in 15% acetone
[10] = 10 wt %, at 5° C. in 15% acetone
[11] = 15 wt %, at 5° C. in 15% acetone
[12] = 20 wt %, at 5° C. in 15% acetone
[13] = 30 wt %, at 5° C. in 15% acetone
[14] = 50 wt %, at 5° C. in 15% acetone

## CCN(CC)CCOC(=O)Cc1sc(-c2ccccc2)nc1-c1ccc(Cl)cc1.Cl [2-(diethylamino)ethyl 4-(4-chlorophenyl)-2-phenyl-5-thiazoleacetate•HCl]
[1]
  Stability of the solution at a temperature higher than 40° C. and a pH lower than 3 or greater than 6: not stable
[2]; 0.01 wt %, in water at 25° C.
  Purity at Day 3: 83.4%
  Purity at Day 7: 74.2%
  Purity at Day 14: 58.4%
  Purity at Day 21: 46.5%
  Purity at Day 28: 37.5%
  Purity at hr 0: 98.4%
[2]; 0.1 wt %, in water at 25° C.
  Purity at Day 3: 96.7%
  Purity at Day 7: 95.6%
  Purity at Day 14: 91.5%
  Purity at Day 21: 84.7%
  Purity at Day 28: 80.5%
  Purity at hr 0: 98.5%
[2]; 1 wt %, in water at 25° C.
  Purity at Day 3: 96.6%
  Purity at Day 7: 95.5%
  Purity at Day 14: 92.9%
  Purity at Day 21: 90.9%
  Purity at Day 28: 89.1%
  Purity at hr 0: 98.7%
[2]; 3 wt %, in water at 25° C.
  Purity at Day 3: 96.5%
  Purity at Day 7: 96.2%
  Purity at Day 14: 94.8%
  Purity at Day 21: 94.0%
  Purity at Day 28: 92.7%
  Purity at hr 0: 98.9%
[2]; 5 wt %, in water at 25° C.
  Purity at Day 3: 98.4%
  Purity at Day 7: 98.0%
  Purity at Day 14: 97.8%
  Purity at Day 21: 96.6%
  Purity at Day 28: 95.4%
  Purity at hr 0: 98.9%
[2]; 7 wt %, in water at 25° C.
  Purity at Day 3: 98.6%
  Purity at Day 7: 98.2%
  Purity at Day 14: 98.2%
  Purity at Day 21: 97.7%
  Purity at Day 28: 97.5%
  Purity at hr 0: 99.1%
[2]; 8 wt %, in water at 25° C.
  Purity at Day 3: 98.7%
  Purity at Day 7: 98.3%
  Purity at Day 14: 97.9%
  Purity at Day 21: 97.9%
  Purity at Day 28: 97.6%
  Purity at hr 0: 99.1%
[2]; 10 wt %, in water at 25° C.
  Purity at Day 3: 98.8%
  Purity at Day 7: 98.5%
  Purity at Day 14: 98.3%
  Purity at Day 21: 98.1%
  Purity at Day 28: 97.5%
  Purity at hr 0: 99.2%
[2]; 15 wt %, in water at 25° C.
  Purity at Day 3: 98.7%
  Purity at Day 7: 98.6%
  Purity at Day 14: 98.4%
  Purity at Day 21: 98.1%
  Purity at Day 28: 97.8%
  Purity at hr 0: 99.1%
[2]; 20 wt %, in water at 25° C.
  Purity at Day 3: 98.8%
  Purity at Day 7: 98.5%
  Purity at Day 14: 98.2%
  Purity at Day 21: 98.1%
  Purity at Day 28: 97.7%
  Purity at hr 0: 99.0%
[2]; 30 wt %, in water at 25° C.
  Purity at Day 3: 98.7%
  Purity at Day 7: 98.5%
  Purity at Day 14: 98.3%
  Purity at Day 21: 98.0%
  Purity at Day 28: 97.8%
  Purity at hr 0: 99.1%
[2]; 50 wt %, in water at 25° C.
  Purity at Day 3: 98.8%
  Purity at Day 7: 98.5%
  Purity at Day 14: 98.2%
  Purity at Day 21: 98.9%
  Purity at Day 28: 97.8%
  Purity at hr 0: 99.1%
[2]; in water at 25° C.
  Stability when the concentration is 0.1% or lower: not stable

## CCN(CC)CCOC(=O)c1cc(-c2ccc(F)cc2F)ccc1OC(C)=O.Cl [2-(diethylamino)ethyl 5-(2,4-difluorophenyl)-2-acetoxybenzoate•HCl]
[1]
  Stability of the solution at a temperature higher than 40° C. and a pH lower than 3 or greater than 6: not stable
[2]; [3]
  Purity at day 0: 98.2%
  Purity at day 3: 93.9%
  Purity at day 7: 88.1%
  Purity at day 15: 80.3%
  Purity at day 22: 73.7%
  Purity at day 28: 67.9%
  Purity at day 60: 48.1%
  Purity at day 90: 30.0%
[2]; [4]
  Purity at day 0: 98.3%
  Purity at day 3: 95.1%
  Purity at day 7: 93.1%
  Purity at day 15: 89.0%
  Purity at day 22: 85.3%
  Purity at day 28: 82.3%
  Purity at day 60: 70.5%
  Purity at day 90: 61.2%
[2]; [5]
  Purity at day 0: 98.4%
  Purity at day 3: 97.0%
  Purity at day 7: 95.9%
  Purity at day 15: 94.0%
  Purity at day 22: 92.2%
  Purity at day 28: 89.7%
  Purity at day 60: 79.4%
  Purity at day 90: 71.9%
[2]; [6]
  Purity at day 0: 98.5%
  Purity at day 3: 97.7%
  Purity at day 7: 96.6%
  Purity at day 15: 94.9%
  Purity at day 22: 92.1%
  Purity at day 28: 91.2%
  Purity at day 60: 84.4%
  Purity at day 90: 79.2%
[2]; [7]
  Purity at day 0: 98.6%
  Purity at day 3: 98.2%
  Purity at day 7: 97.8%
  Purity at day 15: 97.3%
  Purity at day 22: 96.1%
  Purity at day 28: 95.5%
  Purity at day 60: 94.5%
  Purity at day 90: 93.9%
[2]; [8]
  Purity at day 0: 98.7%
  Purity at day 3: 98.4%
  Purity at day 7: 98.4%
  Purity at day 15: 98.0%
  Purity at day 22: 97.5%
  Purity at day 28: 97.2%
  Purity at day 60: 96.2%
  Purity at day 90: 95.8%
[2]; [9]
  Purity at day 0: 98.6%
  Purity at day 3: 98.5%
  Purity at day 7: 98.3%
  Purity at day 15: 98.1%
  Purity at day 22: 97.4%
  Purity at day 28: 97.1%
  Purity at day 60: 96.0%
  Purity at day 90: 95.9%
[2]; [10]
  Purity at day 0: 98.7%
  Purity at day 3: 98.5%
  Purity at day 7: 98.5%
  Purity at day 15: 98.2%
  Purity at day 22: 97.7%
  Purity at day 28: 97.3%
  Purity at day 60: 96.7%
  Purity at day 90: 96.1%
[2]; [11]
  Purity at day 0: 98.6%
  Purity at day 3: 98.4%
  Purity at day 7: 98.4%
  Purity at day 15: 98.3%
  Purity at day 22: 97.5%
  Purity at day 28: 97.2%
  Purity at day 60: 96.5%
  Purity at day 90: 96.2%
[2]; [12]
  Purity at day 0: 98.7%
  Purity at day 3: 98.5%
  Purity at day 7: 98.5%
  Purity at day 15: 98.3%
  Purity at day 22: 98.0%
  Purity at day 28: 97.1%
  Purity at day 60: 96.6%
  Purity at day 90: 96.0%
[2]; [13]
  Purity at day 0: 98.5%
  Purity at day 3: 98.5%
  Purity at day 7: 98.4%
  Purity at day 15: 98.1%
  Purity at day 22: 97.9%
  Purity at day 28: 97.3%
  Purity at day 60: 96.7%
  Purity at day 90: 96.2%
[2]; [14]
  Purity at day 0: 98.7%
  Purity at day 3: 98.7%
  Purity at day 7: 98.5%
  Purity at day 15: 98.3%
  Purity at day 22: 97.8%
  Purity at day 28: 97.2%
  Purity at day 60: 96.9%
  Purity at day 90: 96.3%
[2]; at 5° C. in 15% acetone
  Stability when the concentration is 0.1% or lower: not stable

Source: patent US20230157952A1, “METHOD FOR IMPROVING THE STABILITY OF A PHARMACEUTICAL COMPOSITION COMPRISING A HIGH PENETRATION DRUG, AND THE PHARMACEUTICAL COMPOSITION OBTAINED THEREFROM” (Techfields Inc., priority 2020, published 2023)
